In patent US20260262643A1, “HERBICIDAL BENZOXAZINES” (FMC CORPORATION, priority 2022, published 2026):

Legend:
oat, wild [1] = assay: Test C postemergence; format: in vivo, Avena fatua; conditions: 10 days
Procedure, shortened: (§1)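 Test material, in non-phytotoxic solvent with surfactant, was sprayed on the soil directly after seeding (preemergence) or on young plants of 2–10 cm with one to two leaves (postemergence). Greenhouse, 10 days; 0–100 visual control scale.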

ryegrass, Italian [2] = assay: Test C postemergence; format: in vivo, Lolium multiflorum; conditions: 10 days
Procedure, shortened: as §1

corn [3] = assay: Test C preemergence; format: in vivo, Zea mays; conditions: 0 to 100 scale (0 no effect, 100 complete control); for Plant response rating, Corn: Preemergence, 500 g ai/ha, visual rating after 10 days; for Corn plant response rating: Test C, preemergence, 125 g ai/ha
Procedure, shortened: as §1

oat, wild [4] = assay: Test C preemergence; format: in vivo, Avena fatua; conditions: 0 to 100 scale (0 no effect, 100 complete control); for Plant response rating, Oat, Wild: Preemergence, 500 g ai/ha, visual rating after 10 days; for Oat, Wild plant response rating: Test C, preemergence, 125 g ai/ha
Procedure, shortened: as §1

kochia [5] = assay: Test C postemergence; format: in vivo, Bassia scoparia; conditions: 10 days
Procedure, shortened: as §1

galium = assay: Test C postemergence; format: in vivo, Galium aparine; conditions: 10 days
Procedure, shortened: as §1

pigweed, palmer [6] = assay: Test C preemergence; format: in vivo, Amaranthus palmeri; conditions: 0 to 100 scale (0 no effect, 100 complete control); for Plant response rating, Pigweed, Palmer: Preemergence, 500 g ai/ha, visual rating after 10 days; for Pigweed, Palmer plant response rating: Test C, preemergence, 125 g ai/ha
Procedure, shortened: as §1

ragweed [7] = assay: Test C postemergence; format: in vivo, Ambrosia artemisiifolia; conditions: 10 days
Procedure, shortened: as §1

corn [8] = assay: Test C postemergence; format: in vivo, Zea mays; conditions: 10 days
Procedure, shortened: as §1

blackgrass [9] = assay: Test C preemergence; format: in vivo, Alopecurus myosuroides; conditions: 0 to 100 scale (0 no effect, 100 complete control); for Plant response rating, Blackgrass: Preemergence, 500 g ai/ha, visual rating after 10 days; for Blackgrass plant response rating: Test C, preemergence, 125 g ai/ha
Procedure, shortened: as §1

soybean [10] = assay: Test C postemergence; format: in vivo, Glycine max; conditions: 10 days
Procedure, shortened: as §1

green foxtail [11] = assay: Test C postemergence; format: in vivo, Setaria viridis; conditions: 10 days
Procedure, shortened: as §1

ryegrass, Italian [12] = assay: Test C preemergence; format: in vivo, Lolium multiflorum; conditions: 0 to 100 scale (0 no effect, 100 complete control); for Plant response rating, Ryegrass, Italian: Preemergence, 500 g ai/ha, visual rating after 10 days; for Ryegrass, Italian plant response rating: Test C, preemergence, 125 g ai/ha
Procedure, shortened: as §1

sedge, umbrella = assay: Test D flooded paddy test; format: in vivo, Cyperus difformis; conditions: 250 g ai/ha, applied to paddy water, visual rating after 13 to 14 days, scale 0 to 100 (0 no effect, 100 complete control)
Procedure, shortened: (§2)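 Seedlings reached the 2-leaf stage, then pots were flooded to 3 cm over the soil surface. Compound was applied into the water, depth was maintained, and plants stayed in the greenhouse 13 to 14 days before visual scoring (0–100) relative to controls.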

ducksalad = assay: Test D flooded paddy test; format: in vivo, Heteranthera limosa; conditions: 250 g ai/ha, applied to paddy water, visual rating after 13 to 14 days, scale 0 to 100 (0 no effect, 100 complete control)
Procedure, shortened: as §2

blackgrass [13] = assay: Test C postemergence; format: in vivo, Alopecurus myosuroides; conditions: 10 days
Procedure, shortened: as §1

barnyardgrass [14] = assay: Test C postemergence; format: in vivo, Echinochloa crusgalli; conditions: 10 days
Procedure, shortened: as §1

horseweed = assay: Test C postemergence; format: in vivo, Erigeron canadensis; conditions: 10 days
Procedure, shortened: as §1

wheat [15] = assay: Test C postemergence; format: in vivo, Triticum aestivum; conditions: 10 days
Procedure, shortened: as §1

ragweed [16] = assay: Test C preemergence; format: in vivo, Ambrosia artemisiifolia; conditions: 0 to 100 scale (0 no effect, 100 complete control); for Plant response rating, Ragweed: Preemergence, 500 g ai/ha, visual rating after 10 days; for Ragweed plant response rating: Test C, preemergence, 125 g ai/ha
Procedure, shortened: as §1

green foxtail [17] = assay: Test C preemergence; format: in vivo, Setaria viridis; conditions: 0 to 100 scale (0 no effect, 100 complete control); for Plant response rating, Foxtail, Green: Preemergence, 500 g ai/ha, visual rating after 10 days; for Foxtail, Green plant response rating: Test C, preemergence, 125 g ai/ha
Procedure, shortened: as §1

wheat [18] = assay: Test C preemergence; format: in vivo, Triticum aestivum; conditions: 0 to 100 scale (0 no effect, 100 complete control); for Plant response rating, Wheat: Preemergence, 500 g ai/ha, visual rating after 10 days; for Wheat plant response rating: Test C, preemergence, 125 g ai/ha
Procedure, shortened: as §1

barnyardgrass [19] = assay: Test D flooded paddy test; format: in vivo, Echinochloa crus-galli; conditions: 250 g ai/ha, applied to paddy water, visual rating after 13 to 14 days, scale 0 to 100 (0 no effect, 100 complete control)
Procedure, shortened: as §2

soybean [20] = assay: Test C preemergence; format: in vivo, Glycine max; conditions: 0 to 100 scale (0 no effect, 100 complete control); for Plant response rating, Soybean: Preemergence, 500 g ai/ha, visual rating after 10 days; for Soybean plant response rating: Test C, preemergence, 125 g ai/ha
Procedure, shortened: as §1

rice = assay: Test D flooded paddy test; format: in vivo, Oryza sativa; conditions: 250 g ai/ha, applied to paddy water, visual rating after 13 to 14 days, scale 0 to 100 (0 no effect, 100 complete control)
Procedure, shortened: as §2

pigweed, palmer [21] = assay: Test C postemergence; format: in vivo, Amaranthus palmeri; conditions: 10 days
Procedure, shortened: as §1

barnyardgrass [22] = assay: Test C preemergence; format: in vivo, Echinochloa crusgalli; conditions: 0 to 100 scale (0 no effect, 100 complete control); for Plant response rating, Barnyardgrass: Preemergence, 500 g ai/ha, visual rating after 10 days; for Barnyardgrass plant response rating: Test C, preemergence, 125 g ai/ha
Procedure, shortened: as §1

kochia [23] = assay: Test C preemergence; format: in vivo, Bassia scoparia; conditions: 0 to 100 scale (0 no effect, 100 complete control); for Plant response rating, Kochia: Preemergence, 500 g ai/ha, visual rating after 10 days; for Kochia plant response rating: Test C, preemergence, 125 g ai/ha
Procedure, shortened: as §1

[24] = 125 g ai/ha, postemergence, 0 to 100 scale, 0 no effect, 100 complete control
[25] = Postemergence, 500 g ai/ha, visual 0 to 100 scale (0 no effect, 100 complete control)

In the case of `COc1ccc(-n2cnc(C(C)C)n2)cc1C(=O)N1C[C@H](C)Oc2c1cccc2C(F)(F)F` [Compound 171], the “Plant response rating, Oat, Wild” value (oat, wild [1]; [24]) is reported as 10, the “Plant response rating, Oat, Wild” value (oat, wild [1]; [25]) is reported as 50 and the “Plant response rating, Ryegrass, Italian” value (ryegrass, Italian [2]; [24]) is reported as 60. For the same compound, the “Plant response rating, Ryegrass, Italian” value (ryegrass, Italian [2]; [25]) was 80, the “Plant response rating, Corn” value (corn [3]) was 40 and the “Corn plant response rating” value (corn [3]) was 30. For the same compound, the “Plant response rating, Oat, Wild” value (oat, wild [4]) was 80, the “Oat, Wild plant response rating” value (oat, wild [4]) was 70 and the “Plant response rating, Kochia” value (kochia [5]; [24]) was 90. For the same compound, the “Plant response rating, Kochia” value (kochia [5]; [25]) was 90, the “Plant response rating, Galium” value (galium; [24]) was 100 and the “Plant response rating, Galium” value (galium; [25]) was 100. For the same compound, the “Plant response rating, Pigweed, Palmer” value (pigweed, palmer [6]) was 100, the “Pigweed, Palmer plant response rating” value (pigweed, palmer [6]) was 100 and the “Plant response rating, Ragweed” value (ragweed [7]; [24]) was 60. The “Plant response rating, Ragweed” value (ragweed [7]; [25]) was 70, the “Plant response rating, Corn” value (corn [8]; [24]) was 20 and the “Plant response rating, Corn” value (corn [8]; [25]) was 20. The “Plant response rating, Blackgrass” value (blackgrass [9]) was 70, the “Blackgrass plant response rating” value (blackgrass [9]) was 70 and the “Plant response rating, Soybean” value (soybean [10]; [24]) was 100. For the same compound, the “Plant response rating, Soybean” value (soybean [10]; [25]) was 100, the “Plant response rating, Foxtail, Green” value (green foxtail [11]; [24]) was 40 and the “Plant response rating, Foxtail, Green” value (green foxtail [11]; [25]) was 50. For the same compound, the “Plant response rating, Ryegrass, Italian” value (ryegrass, Italian [12]) was 90, the “Ryegrass, Italian plant response rating” value (ryegrass, Italian [12]) was 50 and the “Plant response rating, Sedge, Umbrella (Flood)” value (sedge, umbrella) was 95. The “Plant response rating, Ducksalad (Flood)” value (ducksalad) was 60, the “Plant response rating, Blackgrass” value (blackgrass [13]; [24]) was 30 and the “Plant response rating, Blackgrass” value (blackgrass [13]; [25]) was 80. For the same compound, the “Plant response rating, Barnyardgrass” value (barnyardgrass [14]; [24]) was 30, the “Plant response rating, Barnyardgrass” value (barnyardgrass [14]; [25]) was 40 and the “Plant response rating, Horseweed” value (horseweed; [24]) was 20. The “Plant response rating, Horseweed” value (horseweed; [25]) was 80, the “Plant response rating, Wheat” value (wheat [15]; [24]) was 10 and the “Plant response rating, Wheat” value (wheat [15]; [25]) was 40. The “Plant response rating, Ragweed” value (ragweed [16]) was 90, the “Ragweed plant response rating” value (ragweed [16]) was 60 and the “Plant response rating, Foxtail, Green” value (green foxtail [17]) was 100. The “Foxtail, Green plant response rating” value (green foxtail [17]) was 100, the “Plant response rating, Wheat” value (wheat [18]) was 90 and the “Wheat plant response rating” value (wheat [18]) was 40. The “Plant response rating, Barnyardgrass (Flood)” value (barnyardgrass [19]) was 0, the “Plant response rating, Soybean” value (soybean [20]) was 100 and the “Soybean plant response rating” value (soybean [20]) was 60. For the same compound, the “Plant response rating, Rice (Flood)” value (rice) was 0, the “Plant response rating, Pigweed, Palmer” value (pigweed, palmer [21]; [24]) was 100 and the “Plant response rating, Pigweed, Palmer” value (pigweed, palmer [21]; [25]) was 100. For the same compound, the “Plant response rating, Barnyardgrass” value (barnyardgrass [22]) was 100, the “Barnyardgrass plant response rating” value (barnyardgrass [22]) was 90 and the “Plant response rating, Kochia” value (kochia [23]) was 90. The “Kochia plant response rating” value (kochia [23]) was 90.

`Cc1ccc(-n2cnc(C3CCC3)n2)cc1C(=O)N1CC(C(F)(F)F)Oc2c(Cl)cccc21` (single isomer, unassigned) [Compound 219] was tested, and the “Plant response rating, Oat, Wild” value (oat, wild [1]; [24]) was 10, the “Plant response rating, Oat, Wild” value (oat, wild [1]; [25]) was 40 and the “Plant response rating, Ryegrass, Italian” value (ryegrass, Italian [2]; [24]) was 50. The “Plant response rating, Ryegrass, Italian” value (ryegrass, Italian [2]; [25]) was 70, the “Plant response rating, Corn” value (corn [3]) was 20 and the “Corn plant response rating” value (corn [3]) was 10. The “Plant response rating, Oat, Wild” value (oat, wild [4]) was 70, the “Oat, Wild plant response rating” value (oat, wild [4]) was 30 and the “Plant response rating, Kochia” value (kochia [5]; [24]) was 80. For the same compound, the “Plant response rating, Kochia” value (kochia [5]; [25]) was 90, the “Plant response rating, Galium” value (galium; [24]) was 100 and the “Plant response rating, Galium” value (galium; [25]) was 100. The “Plant response rating, Pigweed, Palmer” value (pigweed, palmer [6]) was 100, the “Pigweed, Palmer plant response rating” value (pigweed, palmer [6]) was 100 and the “Plant response rating, Ragweed” value (ragweed [7]; [24]) was 50. The “Plant response rating, Ragweed” value (ragweed [7]; [25]) was 90, the “Plant response rating, Corn” value (corn [8]; [24]) was 20 and the “Plant response rating, Corn” value (corn [8]; [25]) was 30. For the same compound, the “Plant response rating, Blackgrass” value (blackgrass [9]) was 40, the “Blackgrass plant response rating” value (blackgrass [9]) was 0 and the “Plant response rating, Soybean” value (soybean [10]; [24]) was 100. The “Plant response rating, Soybean” value (soybean [10]; [25]) was 100, the “Plant response rating, Foxtail, Green” value (green foxtail [11]; [24]) was 80 and the “Plant response rating, Foxtail, Green” value (green foxtail [11]; [25]) was 90. The “Plant response rating, Ryegrass, Italian” value (ryegrass, Italian [12]) was 80, the “Ryegrass, Italian plant response rating” value (ryegrass, Italian [12]) was 90 and the “Plant response rating, Sedge, Umbrella (Flood)” value (sedge, umbrella) was 50. The “Plant response rating, Ducksalad (Flood)” value (ducksalad) was 50, the “Plant response rating, Blackgrass” value (blackgrass [13]; [24]) was 40 and the “Plant response rating, Blackgrass” value (blackgrass [13]; [25]) was 50. For the same compound, the “Plant response rating, Barnyardgrass” value (barnyardgrass [14]; [24]) was 70, the “Plant response rating, Barnyardgrass” value (barnyardgrass [14]; [25]) was 100 and the “Plant response rating, Horseweed” value (horseweed; [25]) was 70. For the same compound, the “Plant response rating, Wheat” value (wheat [15]; [24]) was 20, the “Plant response rating, Wheat” value (wheat [15]; [25]) was 40 and the “Plant response rating, Ragweed” value (ragweed [16]) was 70. For the same compound, the “Ragweed plant response rating” value (ragweed [16]) was 30, the “Plant response rating, Foxtail, Green” value (green foxtail [17]) was 100 and the “Foxtail, Green plant response rating” value (green foxtail [17]) was 100. For the same compound, the “Plant response rating, Wheat” value (wheat [18]) was 50, the “Wheat plant response rating” value (wheat [18]) was 20 and the “Plant response rating, Barnyardgrass (Flood)” value (barnyardgrass [19]) was 10. For the same compound, the “Plant response rating, Soybean” value (soybean [20]) was 90, the “Soybean plant response rating” value (soybean [20]) was 70 and the “Plant response rating, Rice (Flood)” value (rice) was 0. The “Plant response rating, Pigweed, Palmer” value (pigweed, palmer [21]; [24]) was 100, the “Plant response rating, Pigweed, Palmer” value (pigweed, palmer [21]; [25]) was 100 and the “Plant response rating, Barnyardgrass” value (barnyardgrass [22]) was 100. For the same compound, the “Barnyardgrass plant response rating” value (barnyardgrass [22]) was 80, the “Plant response rating, Kochia” value (kochia [23]) was 100 and the “Kochia plant response rating” value (kochia [23]) was 90.
